Reference: patent US20260103466A1, “PROCESS FOR THE MANUFACTURE OF SALTS AND CRYSTALLINE FORMS OF 1-(8-BROMOPYRIDO[2,3-E][1,2,4]TRIAZOLO[4,3-A]PYRAZIN-4-YL)-NMETHYLAZETIDIN-3-AMINE AND NOVEL CRYSTALLINE FORMS” (JW PHARMACEUTICAL CORPORATION, priority 2022, published 2026)

Experiments:
[1] = Solubility in various solvents; type: physicochemical
[2] = Stability towards hydrolysis and pH during processing in aqueous environment; type: physicochemical; conditions: compared to the hydrogen sulfate salt; for Stability towards hydrolysis: processing in aqueous, elevated temperatures at least as high as 50° C.
[3] = Solid form stability on drying and in water-containing environments; type: physicochemical; conditions: for Stability during gentle drying: polymorphic forms of the methyl sulfate salt
histamine 4 receptor = histamine 4 receptor (Homo sapiens, UniProt Q9H3N8); conditions: cited from earlier work
[4] = tested on: inflammatory cells such as mast cells and eosinophils; conditions: cited from earlier work

Sequence of histamine 4 receptor (Q9H3N8 whole entry): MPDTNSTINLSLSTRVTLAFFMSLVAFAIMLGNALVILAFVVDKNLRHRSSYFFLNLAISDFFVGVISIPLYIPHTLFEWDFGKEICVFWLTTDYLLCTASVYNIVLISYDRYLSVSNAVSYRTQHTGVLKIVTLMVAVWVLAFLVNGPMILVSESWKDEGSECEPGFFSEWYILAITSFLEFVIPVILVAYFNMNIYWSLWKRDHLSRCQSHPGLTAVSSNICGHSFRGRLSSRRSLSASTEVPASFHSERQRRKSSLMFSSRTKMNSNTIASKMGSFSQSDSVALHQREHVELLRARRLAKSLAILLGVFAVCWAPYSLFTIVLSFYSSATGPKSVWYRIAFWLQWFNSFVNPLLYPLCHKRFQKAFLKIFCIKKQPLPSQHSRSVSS

With “1-(8-bromopyrido[2,3-e][1,2,4]triazolo[4,3-a]pyrazin-4-yl)-N-methylazetidin-3-amine methyl sulfate” the “Solubility (in words)” value ([1]; in 1-propanol acetonitrile and ethanol) was “intermediate”, the “Solubility (in words)” value ([1]; in 1-propanol:H2O (1:5) and DMSO) was “very high” and the “Solubility (in words)” value ([1]; in THF, EtOAC, Toluene, MTBE and methyl ethyl ketone) was “very low”. The “Solubility (in words)” value ([1]; in a number of solvents) was “relatively high”, the “Solubility (in words)” value ([1]; in isoamyl alcohol and 2-propanol) was “low” and the “Solubility (in words)” value ([1]; in methanol and DMF) was “high”. The Solubility ([1]; solvent 1-propanol/H2O (1:5), solid form A + B) was 44000 µg/mL, the Solubility ([1]; solvent 1-propanol, solid form B) was 50 µg/mL and the Solubility ([1]; solvent 2-propanol, solid form A + B) was 16 µg/mL. The Solubility ([1]; solvent Acetone, solid form B) was <3 µg/mL, the Solubility ([1]; solvent Acetonitrile, solid form B) was 55 µg/mL and the Solubility ([1]; solvent DMF, solid form B) was 8200 µg/mL. For the same molecule, the Solubility ([1]; solvent DMSO, solid form A + C) was “>/=69000 μg/ml”, the Solubility ([1]; solvent EtOAc, solid form B) was <3 µg/mL and the Solubility ([1]; solvent EtOH, solid form B) was 110 µg/mL. The Solubility ([1]; solvent Isoamyl alcohol, solid form A + B) was 6.3 µg/mL, the Solubility ([1]; solvent MTBE, solid form A + B) was <3 µg/mL and the Solubility ([1]; solvent MeOH, solid form B) was 1600 µg/mL. The Solubility ([1]; solvent Methyl ethyl ketone, solid form B) was <3 µg/mL, the Solubility ([1]; solvent THF, solid form B) was <3 µg/mL and the Solubility ([1]; solvent Toluene, solid form A + B) was <3 µg/mL. The “pH in aqueous environment” value [2] was “more neutral” and the Stability towards hydrolysis [2] was “much more stable”.

With “1-(8-bromopyrido[2,3-e][1,2,4]triazolo[4,3-a]pyrazin-4-yl)-N-methylazetidin-3-amine ethyl sulfate” the Solubility ([1]; solvent 1,3-dimethyl-2-imidazolidinone, ethyl sulfate form A) was 17000 µg/mL, the Solubility ([1]; solvent 1-propanol, ethyl sulfate form A) was 37 µg/mL and the Solubility ([1]; solvent 2-propanol, ethyl sulfate form A) was 4.7 µg/mL. For the same molecule, the Solubility ([1]; solvent Acetone, ethyl sulfate form A) was 6.2 µg/mL, the Solubility ([1]; solvent Acetonitrile, ethyl sulfate form A) was 45 µg/mL and the Solubility ([1]; solvent Cyclohexane, ethyl sulfate form A) was <3.5 µg/mL. For the same molecule, the Solubility ([1]; solvent DCM, ethyl sulfate form A) was <3.5 µg/mL, the Solubility ([1]; solvent DMF, ethyl sulfate form A) was 5900 µg/mL and the Solubility ([1]; solvent DMSO, ethyl sulfate form A) was 76000 µg/mL. For the same molecule, the Solubility ([1]; solvent EtOAc, ethyl sulfate form A) was <3.5 µg/mL, the Solubility ([1]; solvent EtOH, ethyl sulfate form A) was 120 µg/mL and the Solubility ([1]; solvent Isoamyl alcohol, ethyl sulfate form A) was 23 µg/mL. For the same molecule, the Solubility ([1]; solvent MTBE, ethyl sulfate form A) was <3.5 µg/mL, the Solubility ([1]; solvent MeOH, ethyl sulfate form A) was 1600 µg/mL and the Solubility ([1]; solvent Methyl ethyl ketone, ethyl sulfate form A) was 200 µg/mL. For the same molecule, the Solubility ([1]; solvent Toluene, ethyl sulfate form A) was <3.5 µg/mL, the “pH in aqueous environment” value [2] was “more neutral” and the Stability towards hydrolysis [2] was “much more stable”.

With CNC1CN(c2nc3ncc(Br)cc3n3cnnc23)C1.CS(=O)(=O)O [methane sulfonate salt, 1-(8-bromopyrido[2,3-e][1,2,4]triazolo[4,3-a]pyrazin-4-yl)-N-methylazetidin-3-amine methane sulfonate] the “pH in aqueous environment” value [2] was “more neutral” and the Stability towards hydrolysis [2] was “much more stable”.

For CNC1CN(c2nc3ncc(Br)cc3n3cnnc23)C1.COS(=O)(=O)O [Form B, 1-(8-bromopyrido[2,3-e][1,2,4]triazolo[4,3-a]pyrazin-4-yl)-N-methylazetidin-3-amine methyl sulfate anhydrate], the “Stability in water-containing environments” value ([3]; environments containing 60% water) was “stable” and the “Stability during gentle drying” value [3] was “stable”.

For CNC1CN(c2nc3ncc(Br)cc3n3cnnc23)C1 [1-(8-bromopyrido[2,3-e][1,2,4]triazolo[4,3-a]pyrazin-4-yl)-N-methylazetidin-3-amine], the “histamine 4 receptor inhibitory effect” value (histamine 4 receptor) is listed as “strong” and the “effects against histamine induced infiltration of inflammatory cells” value [4] is listed as “suppressive effects”.

For “1-(8-bromopyrido[2,3-e][1,2,4]triazolo[4,3-a]pyrazin-4-yl)-N-methylazetidin-3-amine methyl sulfate monohydrate [form A]”, the “Drying behaviour of crystal lattice” value ([3]; freeze dryer or vacuum oven at 60° C.) was “without collapsing the crystal lattice” and the “Stability during gentle drying” value [3] was “stable”.
